Molecular target: T1, recombinant autotaxin (Homo sapiens, UniProt Q13822)
T1 construct: made in house; host or cells: Hi5 insect cells (baculovirus)
Assay: Autotaxin test (enzyme test), Amplex Red fluorescence with LPC substrate
Format: biochemical
Conditions: autotaxin inhibition (enzyme test); for remaining activity at 10 µM: 10 μM compound, read-out: % Control at 10 μM
Summary of the method: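 Purified recombinant autotaxin (baculovirus Hi5-expressed) pre-incubated with compound 30 min at 22° C, then LPC (final 75 μM) added and reacted 90 min at 37° C in Tris pH 8 buffer with CaCl2. Choline released was coupled via alkaline phosphatase, choline oxidase and peroxidase to Amplex Red; resorufin fluorescence read in kinetic mode (ex 485/em 612 nm).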

| Structure (SMILES) | remaining activity at 10 µM [%] | IC50 [nM] |
| --- | --- | --- |
| CC(C)(C)CC(=O)N1CCN2C(=O)c3cc(-c4ccc(Cl)cc4F)ccc3N(CCN3CCOCC3)C(=O)[C@@H]2C1 [Compound A161] | 3 | 100 to 1000 |
| CN1CCN(C(=O)CN2C(=O)[C@@H]3CN(C(=O)CC(C)(C)C)CCN3C(=O)c3cc(-c4ccc(Cl)cc4F)ccc32)CC1 [Compound A162] | 30 | > 1000 |
| CN(C)CCN1C(=O)[C@@H]2CN(C(=O)CC(C)(C)C)CCN2C(=O)c2cc(-c3ccc(Cl)cc3F)ccc21 [Compound A163] | 10 | > 1000 |
| O=C([C@@H]1CCCN1C1CCNCC1)N1CCN2C(=O)c3cc(-c4ccc(Cl)cc4F)ccc3N(CCC3CCNCC3)C(=O)[C@@H]2C1 [Compound A164] | 12 | > 1000 |
| CC(C)(C)CC(=O)N1CCN2C(=O)c3cc(-c4ccc(Cl)cc4)ccc3N(CCO)C(=O)C2C1 (centres unmarked) [Compound A165] | -20 | 100 to 1000 |
| CN1CCC(N2C(=O)C3CN(C(=O)CC(C)(C)C)CCN3C(=O)c3cc(-c4ccc(Cl)cc4F)ccc32)CC1 (centres unmarked) [Compound A166] | 10 | > 1000 |
| O=C1Nc2ccc(-c3ccc(Cl)cc3)cc2C(=O)N2CCN(C(=O)Oc3ccccc3)CC12 (centres unmarked) [Compound A167] | 26 | > 1000 |
| CC(C)(C)COC(=O)N1CCN2C(=O)c3cc(-c4ccc(Cl)cc4)ccc3NC(=O)C2C1 (centres unmarked) [Compound A168] | 52 | > 1000 |
| CC(C)CS(=O)(=O)N1CCN2C(=O)c3cc(-c4ccc(Cl)cc4F)ccc3NC(=O)[C@H]2C1 [Compound A173] | 1 | 100 to 1000 |
| O=C1Nc2ccc(-c3ccc(Cl)cc3F)cc2C(=O)N2CCN(S(=O)(=O)CC3CCCCC3)C[C@H]12 [Compound A174] | 21 | 100 to 1000 |
| O=C1Nc2ccc(-c3ccc(Cl)cc3)cc2CN2CCN(C(=O)[C@@H]3CCCN3C3CCNCC3)CC12 (some centres unmarked) [Compound A176] | 63 | > 1000 |
| CS(=O)(=O)N1CCN2C(=O)c3cc(-c4ccccc4F)ccc3NC(=O)[C@H]2C1 [Compound B1] | 75 | – |
| COc1ccc(-c2ccc3c(c2)C(=O)N2CCN(C(=O)[C@@H](O)c4ccccc4)C[C@@H]2C(=O)N3)cc1 [Compound B2] | 84 | – |
| O=C1Nc2ccc(-c3ccccc3F)cc2C(=O)N2CCN(C(=O)[C@@H](O)c3ccccc3)C[C@H]12 [Compound B3] | 47 | – |
| O=C(O)CCC(=O)N1CCN2C(=O)c3cc(-c4ccc(Cl)cc4)ccc3NC(=O)[C@@H]2C1 [Compound B4] | 71 | – |
| O=C1Nc2ccc(-c3ccc(Cl)cc3)cc2C(=O)N2CCN(C(=O)C3CCNCC3)C[C@H]12 [Compound B5] | 64 | – |
| O=C1Nc2ccc(-c3ccccc3)cc2C(=O)N2CCN(C(=O)C3CCCC3)C[C@@H]12 [Compound B6] | 85 | – |
| O=C(O)CCCC(=O)N1CCN2C(=O)c3cc(-c4ccco4)ccc3NC(=O)[C@H]2C1 [Compound B7] | 70 | – |
| CC(C)(CC(=O)O)CC(=O)N1CCN2C(=O)c3cc(-c4ccc(Cl)cc4)ccc3NC(=O)[C@H]2C1 [Compound B8] | 70 | – |

| Structure (SMILES) | remaining activity at 10 µM [%] | IC50 [nM] |
| --- | --- | --- |
| O=C1Nc2ccc(-c3ccc4c(c3)OCO4)cc2C(=O)N2CCN(C(=O)[C@@H]3CSCN3)C[C@H]12 [Compound B9] | 74 | – |
| O=C1Nc2ccc(-c3ccccc3F)cc2C(=O)N2CCN(C(=O)C3CCCC3)C[C@@H]12 [Compound B10] | 76 | – |
| O=C1Nc2ccc(-c3cccc(C(F)(F)F)c3)cc2C(=O)N2CCN(C(=O)c3ccccc3)C[C@H]12 [Compound B11] | 85 | – |
| O=C1Nc2ccc(-c3ccc4c(c3)OCO4)cc2C(=O)N2CCN(C(=O)c3cccnc3)C[C@H]12 [Compound B12] | 84 | – |
| O=C1Nc2ccc(-c3ccccc3)cc2C(=O)N2CCN(C(=O)C3CCCCC3)C[C@H]12 [Compound B13] | 53 | – |
| O=C1Nc2ccc(-c3ccc(Cl)cc3)cc2C(=O)N2CCN(C(=O)CO)C[C@H]12 [Compound B14] | 80 | – |
| O=C1Nc2ccc(-c3ccccc3)cc2C(=O)N2CCN(C(=O)c3cccs3)C[C@H]12 [Compound B15] | 79 | – |
| O=C1Nc2ccc(-c3ccco3)cc2C(=O)N2CCN(C(=O)C3CC3)C[C@H]12 [Compound B16] | 82 | – |
| O=C1Nc2ccc(-c3ccc(Cl)cc3)cc2C(=O)N2CCN(C(=O)C3CCCCC3)C[C@H]12 [Compound B17] | 26 | > 1000 |
| O=C1Nc2ccc(-c3ccccc3)cc2C(=O)N2CCN(C(=O)[C@@H]3CSCN3)C[C@H]12 [Compound B18] | 56 | – |
| O=C1Nc2ccc(-c3ccccc3F)cc2C(=O)N2CCN(C(=O)C3CCCCC3)C[C@H]12 [Compound B19] | 41 | > 1000 |
| O=C1Nc2ccc(-c3ccc(Cl)cc3)cc2C(=O)N2CCN(C(=O)c3cccs3)C[C@H]12 [Compound B20] | 71 | – |
| O=C1Nc2ccc(-c3ccc(Cl)cc3)cc2C(=O)N2CCN(C(=O)COc3ccccc3)C[C@H]12 [Compound B21] | 57 | – |
| COc1ccc(-c2ccc3c(c2)C(=O)N2CCN(C(=O)[C@@H]4CSCN4)C[C@@H]2C(=O)N3)cc1 [Compound B22] | 71 | – |
| O=C1Nc2ccc(-c3ccccc3F)cc2C(=O)N2CCN(C(=O)c3cccs3)C[C@H]12 [Compound B23] | 76 | – |
| CN(C)c1ccc(C(=O)N2CCN3C(=O)c4cc(-c5ccccc5F)ccc4NC(=O)[C@H]3C2)cc1 [Compound B24] | 83 | – |
| COc1ccc(-c2ccc3c(c2)C(=O)N2CCN(C(=O)CC(C)(C)C)C[C@@H]2C(=O)N3)cc1 [Compound B25] | 47 | > 1000 |
| CC(C)(C)CC(=O)N1CCN2C(=O)c3cc(-c4ccc(Cl)cc4)ccc3NC(=O)C2C1 (centres unmarked) [Compound B26] | – | 100 to 1000 |
| O=C1Nc2ccc(-c3ccc(Cl)cc3)cc2C(=O)N2CCN(C(=O)c3ccccc3)CC12 (centres unmarked) [Compound B27] | 59 | > 1000 |

Source: patent US20120115852A1, “HETEROCYCLIC COMPOUNDS AS AUTOTAXIN INHIBITORS” (Merck Patent Gesellschaft Mit Beschrankter Haftung, priority 2009, published 2012)
